Experiments:
[1] = test system: TRZAWR (Wheat, Winter, cv Riband); assay: Postemergence herbicidal evaluation; assay type: in vivo, Triticum aestivum; conditions: postemergence
Outline: (§1)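 Herbicidal effect was judged by eye on a 0–9 scale covering stand, vigor, deformity, size and chlorosis, compared with controls, four to five weeks after seedlings about two weeks old were sprayed (40 psi, ~0.0156–0.500 kg/ha).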

ABUTH (Velvetleaf) = assay: Postemergence herbicidal evaluation; assay type: in vivo, Abutilon theophrasti; conditions: postemergence
Outline: as §1

[2] = test system: ECHORC (Watergrass (Calif.)); assay: Postemergence weed control under flooded paddy conditions; assay type: in vivo, Echinochloa oryzoides; conditions: postemergence weeds, rated 3 to 4 weeks after treatment
Outline: (§2)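 With weeds 3 to 5 cm tall and rice at the 1.5 to 2.5 leaf stage, containers were flooded and water held 1.5 to 3 cm above soil. Compounds in 50/50 v/v aqueous/acetone went into the flood water at about 0.0313 to 0.500 kg/ha a.i. Effects were visually rated 0–9 against controls after three to four weeks in the greenhouse.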

[3] = test system: IPOHE (Morningglory, Ivyleaf); assay: Preemergence herbicidal evaluation; assay type: in vivo, Ipomoea hederacea; conditions: rated 4-5 weeks after treatment
Outline: (§3)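 Preemergence soil application of compound, sprayed in aqueous acetone at rates equivalent to about 0.0156 to 0.500 kg per hectare onto freshly sown cups. Plant response was judged by eye on a 0-9 scale four to five weeks later.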

[4] = test system: IPOHE (Morningglory, Ivyleaf); assay: Postemergence herbicidal evaluation; assay type: in vivo, Ipomoea hederacea; conditions: postemergence
Outline: as §1

[5] = test system: CHEAL (Lambsquarters, Common); assay: Preemergence herbicidal evaluation; assay type: in vivo, Chenopodium album; conditions: rated 4-5 weeks after treatment
Outline: as §3

SETVI (Foxtail, Green) = assay: Preemergence herbicidal evaluation; assay type: in vivo, Setaria viridis; conditions: rated 4-5 weeks after treatment
Outline: as §3

CYPIR (Rice Flatsedge) = assay: Postemergence weed control under flooded paddy conditions; assay type: in vivo, Cyperus iria; conditions: postemergence weeds, rated 3 to 4 weeks after treatment
Outline: as §2

[6] = test system: TRZAWR (Wheat, Winter, cv Riband); assay: Preemergence herbicidal evaluation; assay type: in vivo, Triticum aestivum; conditions: rated 4-5 weeks after treatment
Outline: as §3

ECHCG (Barnyardgrass) = assay: Preemergence herbicidal evaluation; assay type: in vivo, Echinochloa crus-galli; conditions: rated 4-5 weeks after treatment
Outline: as §3

ORYSAT (Rice, Tebonnet) = assay: Preemergence herbicidal evaluation; assay type: in vivo, Oryza sativa, (L.) Tebonnet; conditions: rated 4-5 weeks after treatment
Outline: as §3

[7] = test system: ECHORC (Watergrass (Calif.)); assay: Preemergence weed control under flooded paddy conditions; assay type: in vivo, Echinochloa oryzoides; conditions: rated 3-4 weeks after treatment
Outline: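 Seeds or propagules sown in silt loam kept flooded 1.5-3 cm; compounds in 50/50 acetone/water pipetted into flood water at about 0.0313 to 0.500 kg/ha. Greenhouse; visual 0-9 rating versus untreated control 3-4 weeks after treatment.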

MOOVA (Monochoria) = assay: as above; assay type: in vivo, Monochoria vaginalis; conditions: rated 3-4 weeks after treatment
Outline: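 Flooded-pot preemergence screen with silt loam and seeds in the upper 0.5 cm. Dose about 0.0313 to 0.500 kg/ha, delivered into flood water; visual 0-9 score after 3 to 4 weeks.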

C=CCOC(=O)CC1SC(=Nc2cc(-n3c(=O)cc(C(F)(F)F)n(C)c3=O)c(F)cc2Cl)N(CC=C)C1=O (stereo not drawn) [Compound 65, Allyl 3-allyl-2-{(2-chloro-5-[3,6-dihydro-3-methyl-2,6-dioxo-4-(trifluoromethyl)-1(2H)-pyrimidinyl]-4-fluorophenyl}imino}-4-oxo-5-thiazolidineacetate]
TRZAWR herbicidal rating ([1]; rate 0.0158 kg/ha): 4.0 | TRZAWR herbicidal rating ([1]; rate 0.0315 kg/ha): 7.0 | TRZAWR herbicidal rating ([1]; rate 0.0630 kg/ha): 7.0 | ABUTH herbicidal rating (ABUTH (Velvetleaf); rate 0.0158 kg/ha): 9.0 | ABUTH herbicidal rating (ABUTH (Velvetleaf); rate 0.0315 kg/ha): 9.0 | ABUTH herbicidal rating (ABUTH (Velvetleaf); rate 0.0630 kg/ha): 9.0 | Herbicidal rating ECHORC ([2]; Rate 0.0313 kg/ha): 5.0 | Herbicidal rating ECHORC ([2]; Rate 0.0625 kg/ha): 5.0 | Herbicidal rating ECHORC ([2]; Rate 0.1250 kg/ha): 6.0 | Herbicidal rating ECHORC ([2]; Rate 0.2500 kg/ha): 7.0 | Preemergence herbicidal rating IPOHE ([3]; rate 0.0156 kg/ha): 0.0 | Preemergence herbicidal rating IPOHE ([3]; rate 0.0313 kg/ha): 0.0 | Preemergence herbicidal rating IPOHE ([3]; rate 0.0625 kg/ha): 1.0 | Preemergence herbicidal rating IPOHE ([3]; rate 0.1250 kg/ha): 9.0 | Preemergence herbicidal rating IPOHE ([3]; rate 0.2500 kg/ha): 7.0 | IPOHE herbicidal rating ([4]; rate 0.0158 kg/ha): 9.0 | IPOHE herbicidal rating ([4]; rate 0.0315 kg/ha): 9.0 | IPOHE herbicidal rating ([4]; rate 0.0630 kg/ha): 9.0 | Preemergence herbicidal rating CHEAL ([5]; rate 0.0156 kg/ha): 9.0 | Preemergence herbicidal rating CHEAL ([5]; rate 0.0313 kg/ha): 9.0 | Preemergence herbicidal rating CHEAL ([5]; rate 0.0625 kg/ha): 9.0 | Preemergence herbicidal rating CHEAL ([5]; rate 0.1250 kg/ha): 9.0 | Preemergence herbicidal rating CHEAL ([5]; rate 0.2500 kg/ha): 9.0 | Preemergence herbicidal rating SETVI (SETVI (Foxtail, Green); rate 0.0156 kg/ha): 0.0 | Preemergence herbicidal rating SETVI (SETVI (Foxtail, Green); rate 0.0313 kg/ha): 1.0 | Preemergence herbicidal rating SETVI (SETVI (Foxtail, Green); rate 0.0625 kg/ha): 2.0 | Preemergence herbicidal rating SETVI (SETVI (Foxtail, Green); rate 0.1250 kg/ha): 7.0 | Preemergence herbicidal rating SETVI (SETVI (Foxtail, Green); rate 0.2500 kg/ha): 9.0 | Herbicidal rating CYPIR (CYPIR (Rice Flatsedge); Rate 0.0313 kg/ha): 6.0 | Herbicidal rating CYPIR (CYPIR (Rice Flatsedge); Rate 0.0625 kg/ha): 7.0 | Herbicidal rating CYPIR (CYPIR (Rice Flatsedge); Rate 0.1250 kg/ha): 7.0 | Herbicidal rating CYPIR (CYPIR (Rice Flatsedge); Rate 0.2500 kg/ha): 8.0 | Preemergence herbicidal rating TRZAWR ([6]; rate 0.0313 kg/ha): 0.0 | Preemergence herbicidal rating TRZAWR ([6]; rate 0.0625 kg/ha): 1.0 | Preemergence herbicidal rating TRZAWR ([6]; rate 0.1250 kg/ha): 1.0 | Preemergence herbicidal rating TRZAWR ([6]; rate 0.2500 kg/ha): 3.0 | Preemergence herbicidal rating ECHCG (ECHCG (Barnyardgrass); rate 0.0156 kg/ha): 0.0 | Preemergence herbicidal rating ECHCG (ECHCG (Barnyardgrass); rate 0.0313 kg/ha): 0.0 | Preemergence herbicidal rating ECHCG (ECHCG (Barnyardgrass); rate 0.0625 kg/ha): 0.0 | Preemergence herbicidal rating ECHCG (ECHCG (Barnyardgrass); rate 0.1250 kg/ha): 2.0 | Preemergence herbicidal rating ECHCG (ECHCG (Barnyardgrass); rate 0.2500 kg/ha): 5.0 | Preemergence herbicidal rating ORYSAT (ORYSAT (Rice, Tebonnet); rate 0.0156 kg/ha): 0.0 | Preemergence herbicidal rating ORYSAT (ORYSAT (Rice, Tebonnet); rate 0.0313 kg/ha): 0.0 | Preemergence herbicidal rating ORYSAT (ORYSAT (Rice, Tebonnet); rate 0.0625 kg/ha): 1.0 | Preemergence herbicidal rating ORYSAT (ORYSAT (Rice, Tebonnet); rate 0.1250 kg/ha): 1.0 | Preemergence herbicidal rating ORYSAT (ORYSAT (Rice, Tebonnet); rate 0.2500 kg/ha): 6.0 | ECHORC herbicidal effect rating ([7]; 0.0313 kg/ha): 5.0 | ECHORC herbicidal effect rating ([7]; 0.0625 kg/ha): 5.0 | ECHORC herbicidal effect rating ([7]; 0.1250 kg/ha): 6.0 | ECHORC herbicidal effect rating ([7]; 0.2500 kg/ha): 7.0 | MOOVA herbicidal effect rating (MOOVA (Monochoria); 0.0313 kg/ha): 9.0 | MOOVA herbicidal effect rating (MOOVA (Monochoria); 0.0625 kg/ha): 9.0 | MOOVA herbicidal effect rating (MOOVA (Monochoria); 0.1250 kg/ha): 9.0 | MOOVA herbicidal effect rating (MOOVA (Monochoria); 0.2500 kg/ha): 9.0

— patent publication US20020137929A1, “1 - (3-heterocyclylphenyl) isothiourea, -isourea, -guanidine and -amidine herbicidal agents” (Intellectual Property Department, BASF Aktiengesellschaft, priority 1998, published 2002)
